According to the supplement of paper PMC11821682:

Legend:
[1] = system: Danio rerio embryo; assay: BMC10 any morphological effect or mortality at 120 hpf; higher = less toxic
[2] = system: HL-60; assay: Cell Health Index (toxicity pseudo-probability over dose series) (index 0-1); higher = more cytotoxic / cell stress;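 also: HL-60 cells exposed 4 h at 37 °C to ten threefold dilutions spanning 5 nM to 100 µM, multiparametric flow cytometry features scored by machine-learning classification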
[3] = system: Danio rerio embryo; assay: LEL larval photomotor response dark phase 120 hpf
Procedure: (§1)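 ZBEscreen: dechorionated Tropical 5D zebrafish embryos were exposed from 4 hpf in 96-well plates (1% DMSO, 28 °C). All compounds were first tested at 100 µM; hits were retested at 0.005-100 µM. Morphology and mortality were scored at 120 hpf and fitted as BMC10 (3-parameter log-logistic, extra risk). The embryonic photomotor response at 24 hpf and the larval photomotor response at 120 hpf are given as lowest effect levels (K-S test, p<0.01). NA = not significant up to 100 µM; NT = not tested.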

[4] = system: Danio rerio embryo; assay: LEL embryonic photomotor response 24 hpf
Procedure: as §1

Compound | BMC10 any morphological effect or mortality [1] [µM] | Cell Health Index [2] | LEL larval photomotor response dark phase 120 hpf [3] [µM] | LEL embryonic photomotor response 24 hpf [4] [µM]
O=c1cc(-c2ccccc2)oc2cc(O)c(O)c(O)c12 [Baicalein] | > 100 | 0.551 | > 100 | > 100
CCC(CC)O[C@@H]1C=C(C(=O)O)C[C@H](N)[C@H]1NC(C)=O [Oseltamivir acid] | > 100 | 0.174 | > 100 | 0.046
CC(=O)c1c(O)cc(O)cc1O.O [Phloroacetophenone] | > 100 | 0.231 | > 100 | > 100
CO[C@H]1O[C@@H]2O[C@@]3(C)CC[C@H]4[C@H](C)CC[C@@H]([C@H]1C)[C@@]24OO3 [Artemether] | 3.55 | 0.289 | 0.41 | 11.1
C[C@@H]1CCO[C@H]2Cn3cc(C(=O)NCc4ccc(F)cc4F)c(=O)c(O)c3C(=O)N12 [Dolutegravir] | > 100 | 0.167 | > 100 | > 100
COc1c2c(cc3c1-c1c(cc4c(c1OC)OCO4)CC(C)C(C)C3)OCO2 (configuration not stated) [Schisandrin C] | 2.06 | 0.61 | > 100 | 11.1
C=C1CC[C@@H]2[C@](C)(CO)[C@H](O)CC[C@@]2(C)[C@@H]1/C=C/C1=CCOC1=O [14-deoxy-11,12-didehydro Andrographolide] | > 100 | 0.43 | > 100 | 100
COc1cc(C[C@H]2C(=O)OC[C@@H]2Cc2ccc(OC)c(OC)c2)ccc1O [Arctigenin] | > 100 | 0.617 | 3.7 | > 100
CS(=O)(=O)O.CS(=O)(=O)O.N=C(N)Nc1ccc(C(=O)Oc2ccc3cc(C(=N)N)ccc3c2)cc1 [Nafamostat] | > 100 | 0.422 | > 100 | > 100
O=C(OC[C@H]1O[C@@H](OC(=O)c2cc(O)c(O)c(OC(=O)c3cc(O)c(O)c(O)c3)c2)[C@H](OC(=O)c2cc(O)c(O)c(OC(=O)c3cc(O)c(O)c(O)c3)c2)[C@@H](OC(=O)c2cc(O)c(O)c(OC(=O)c3cc(O)c(O)c(O)c3)c2)[C@@H]1OC(=O)c1cc(O)c(O)c(OC(=O)c2cc(O)c(O)c(O)c2)c1)c1cc(O)c(O)c(OC(=O)c2cc(O)c(O)c(O)c2)c1 [Chinese Gallotannin] | 32.8 | 0.935 | > 100 | 100
C=C[C@H]1C[N@@]2CC[C@H]1C[C@@H]2[C@@H](O)c1ccnc2ccc(OC)cc12 [Quinidine] | > 100 | 0.197 | > 100 | > 100
Cl.Nc1c(Br)cc(Br)cc1CN[C@H]1CC[C@H](O)CC1 [Ambroxol] | 42.5 | 0.244 | > 100 | 100
C=C[C@@H]1C[C@]1(NC(=O)[C@@H]1C[C@H](Oc2ncc(OC)c3ccc(Cl)cc23)CN1C(=O)[C@@H](NC(=O)OC(C)(C)C)C(C)(C)C)C(=O)NS(=O)(=O)C1CC1 [Asunaprevir] | > 100 | 0.536 | 3.7 | 11.1
CC(C)[C@H](NC(=O)[C@H](CCCNC(=N)N)NC(=O)NC(Cc1ccccc1)C(=O)O)C(=O)NC(C=O)CCCNC(=N)N.Cl.Cl (some centres not stated) [Antipain] | > 100 | 0.154 | > 100 | > 100
C[C@H]1CO[C@@H]2Cn3cc(C(=O)NCc4ccc(F)cc4F)c(=O)c(O)c3C(=O)N12 [Cabotegravir] | > 100 | 0.321 | > 100 | > 100
Cc1ccc(C2Nc3ccccc3C(=O)N2c2ccccc2)s1 (configuration not stated) [Retro-2] | 0.795 | 0.241 | > 100 | 0.14
O=C(Nc1ccccc1F)N[C@H]1N=C(c2ccccc2)c2ccccc2NC1=O [RSV-604] | > 100 | 0.368 | > 100 | > 100
CC(C)(Sc1cc(C(C)(C)C)c(O)c(C(C)(C)C)c1)Sc1cc(C(C)(C)C)c(O)c(C(C)(C)C)c1 [Probucol] | > 100 | 0.134 | > 100 | 0.005
CC(C)c1nc(CN(C)C(=O)N[C@@H](CCN2CCOCC2)C(=O)N[C@H](CC[C@H](Cc2ccccc2)NC(=O)OCc2cncs2)Cc2ccccc2)cs1 [Cobicistat] | > 100 | 0.831 | > 100 | > 100

Compound | BMC10 any morphological effect or mortality [1] [µM] | Cell Health Index [2] | LEL larval photomotor response dark phase 120 hpf [3] [µM] | LEL embryonic photomotor response 24 hpf [4] [µM]
C[C@H](NC(=O)Cc1cc(F)cc(F)c1)C(=O)N[C@@H]1C(=O)N(C)c2ccccc2-c2ccccc21 [DBZ] | 0.365 | 0.293 | 0.41 | 11.1
CCN(CC)Cc1cc(Nc2ccnc3cc(Cl)ccc23)ccc1O [Amodiaquine] | 4.04 | 0.271 | 11.1 | 1.23
O.O=c1c(O)c(-c2ccc(O)c(O)c2)oc2cc(O)cc(O)c12 [Quercetin] | > 100 | 0.461 | > 100 | > 100
O=C(Nc1c(Cl)cncc1Cl)c1ccc(OC(F)F)c(OCC2CC2)c1 [Roflumilast] | > 100 | 0.296 | 0.14 | 0.015
O=C1CCC[C@@H]2[C@H]3CCCN4CCC[C@@H](CN12)[C@@H]34 [Matrine] | > 100 | 0.14 | > 100 | > 100
C/C=C/C[C@@H](C)[C@@H](O)[C@H]1C(=O)N[C@@H]([C@@H](C)O)C(=O)N(C)CC(=O)N(C)[C@@H](CC(C)C)C(=O)N[C@@H](C(C)C)C(=O)N(C)[C@@H](CC(C)C)C(=O)N[C@@H](C)C(=O)N[C@H](C)C(=O)N(C)[C@@H](CC(C)C)C(=O)N(C)[C@@H](CC(C)C)C(=O)N(C)[C@@H](C(C)C)C(=O)N1C [Cyclosporin C] | > 100 | 0.918 | 3.7 | 33.3
COc1cc(NC(C)CCCN)c2ncccc2c1.O=P(O)(O)O.O=P(O)(O)O (configuration not stated) [Primaquine] | > 100 | 0.352 | > 100 | > 100
CC(C)(C)C1=C(O)C(C(C)(C)C)=CC(/C=C(C#N)\C#N)=C1 [Malonoben] | > 100 | 0.861 | > 100 | 0.14
CCS(=O)(=O)Nc1ccc2c(c1)/C(=C(/Nc1ccc(CN3CCCCC3)cc1)c1ccccc1)C(=O)N2 [Hesperadin] | 2.02 | 0.882 | > 100 | 3.7
O=c1cc(-c2ccc(O)cc2)oc2cc(O)cc(O)c12 [Apigenin] | > 100 | 0.288 | > 100 | > 100
Cc1ccc(NC(=O)C(=O)NC2CC(C)(C)NC(C)(C)C2)cc1 [YYA-021] | > 100 | 0.184 | 33.3 | 100
C=C(C)[C@@H]1CC[C@]2(C(=O)O)CC[C@]3(C)[C@H](CC[C@@H]4[C@@]5(C)CC[C@H](O)C(C)(C)[C@@H]5CC[C@]43C)[C@@H]12 [Betulinic acid] | > 100 | 0.4 | 100 | > 100
Cl.N=c1ccn2c(n1)O[C@H]1[C@H](O)[C@@H](CO)O[C@H]12 [Cyclocytidine] | > 100 | 0.207 | > 100 | > 100
COc1cc(-c2oc3cc(O)cc(O)c3c(=O)c2O[C@@H]2O[C@H](CO[C@@H]3O[C@@H](C)[C@H](O)[C@@H](O)[C@H]3O)[C@@H](O)[C@H](O)[C@H]2O)ccc1O [Narcissoside] | > 100 | 0.248 | > 100 | > 100
OC[C@H]1O[C@@H](O[C@@H]2OC=C[C@H]3[C@H](O)[C@@H]4O[C@]4(CO)[C@@H]23)[C@H](O)[C@@H](O)[C@@H]1O [Catalpol] | > 100 | 0.184 | > 100 | > 100
C[C@@H]1CC[C@H]2[C@@H](C)C(=O)O[C@@H]3O[C@@]4(C)CC[C@@H]1[C@]32OO4 [Artemisinin] | 39.4 | 0.169 | 3.7 | 33.3
CC(=O)O/N=C1/C(=C2\C(=O)Nc3cc(Br)ccc32)Nc2ccccc21 [BIO-Acetoxime] | > 100 | 0.715 | 33.3 | > 100
N#C/C(=C\c1ccc(O)c(O)c1)C(=O)NCCCc1ccccc1 [Tyrphostin AG 555] | 1.13 | 0.494 | > 100 | > 100
CCC(=O)c1ccc(F)c([C@@H]2C[C@@H]2NC(=O)Nc2ccc(C#N)cn2)c1O [MIV-150] | > 100 | 0.306 | > 100 | > 100
